Measurements published in EP2982983B1, “METHOD FOR DRUG SUSCEPTIBILITY TESTING OF MYCOBACTERIUM TUBERCULOSIS BY ELECTRON PARAMAGNETIC RESONANCE” (priority 2014, dated 2016).

Columns and labels:
[1] = species not given; cited from earlier work
[2] = test system: M. tuberculosis H37Rv (ATCC 27294); type: cell-based, Mycobacterium tuberculosis; settings: one day (24 h) exposure to the Cmax of the drug (rifampicin 8 µg/ml, moxifloxacin 4 µg/ml, amikacin 8 µg/ml), compared with control without drug

SMILES	Cmax value (maximum drug concentration in serum) [1] [ng/mL]	rate of CP^• formation [2]
COc1c(N2C[C@@H]3CCCN[C@@H]3C2)c(F)cc2c(=O)c(C(=O)O)cn(C3CC3)c12 [moxifloxacin]	4000	–
CO[C@H]1/C=C/O[C@@]2(C)Oc3c(C)c(O)c4c(O)c(c(/C=N/N5CCN(C)CC5)c(O)c4c3C2=O)NC(=O)/C(C)=C\C=C\[C@H](C)[C@H](O)[C@@H](C)[C@@H](O)[C@@H](C)[C@H](OC(C)=O)[C@@H]1C [rifampicin]	8000	–
NCC[C@H](O)C(=O)N[C@@H]1C[C@H](N)[C@@H](O[C@H]2O[C@H](CN)[C@@H](O)[C@H](O)[C@H]2O)[C@H](O)[C@H]1O[C@H]1O[C@H](CO)[C@@H](O)[C@H](N)[C@H]1O [amikacin]	8000	quite high rate
